Assay in all cases: NCI-60 cell line screen, 48 h
In experiment [1] the test system is DU-145 prostate.
Experiment [2] concerns IGROV1 ovarian.
Experiment [3] deals with NCI-H226 lung.
Experiment [4] has as its system NCI-H460 lung.
Experiment [5] concerns OVCAR-8 ovarian.
Experiment [6] concerns SF-268 CNS.
For experiment [7], the system named is SK-MEL-5 melanoma.
The test system of experiment [8] is U251 CNS.
The subject of experiment [9] is UACC-257 melanoma.
Experiment [10] relates to CAKI-1 renal.

Each structure is given as a SMILES string. Where “and” joins values, the source holds several entries; their conditions need not be identical. Identical values can stand only once.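 These data come from cells grown in 96-well plates and exposed to compound for 48 hours at five concentrations. GI50 marks 50% less growth. TGI marks complete inhibition of growth.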

Turning to `O=c1cc(-c2ccccc2)oc2cc(OCCCCCN3CCOCC3)cc(O)c12`, the GI50 in [1] is above 100 µM; in experiment [2], 47.4 µM; in experiment [3], above 100 µM; in [4], 90.1 µM; in [5], 68.2 µM; in experiment [6] it was 75.9 µM. The GI50 in [7] is above 100 µM; in experiment [8], 18.6 µM; in [9], above 100 µM. For the same molecule, the TGI in experiment [1], in [2], in experiment [3], in [4], in [5] and in experiment [6] was above 100 µM each time. The TGI in experiment [7] is above 100 µM; in experiment [8], 45.5 µM; in experiment [9] it was above 100 µM.
Consider `Nn1c(-c2cccc(Cl)c2)nc2ccccc2c1=O`, for which the TGI in experiment [10], in experiment [2], in [3], in experiment [4], in experiment [5] and in experiment [6] was above 100 µM throughout. Further, the TGI in [7], in experiment [8] and in experiment [9] was above 100 µM in each case.
With `C=CCC(N[C@H](CO)c1ccccc1)c1ccccn1` (stereo not given in full), the GI50 in experiment [10] is above 100 µM; in experiment [1] it was above 100 µM; in experiment [2], 88.2 µM; in [3] it was above 100 µM; in [5], above 100 µM; in [7] it was above 100 µM. The GI50 in experiment [8] and in experiment [9] was above 100 µM in each case. For the same molecule, the TGI in [10], in [1], in [2], in [3], in experiment [5] and in experiment [7] was above 100 µM in each case. Besides, the TGI in [8] and in [9] was above 100 µM in each case.
As to `CCC[CH2][Sn]([CH2]CCC)([O]C(=O)c1cc(F)ccc1F)[O]C(=O)c1cc(F)ccc1F`, the GI50 in experiment [10] is 1.06 µM; in [2], 1.63 µM; in experiment [3], 1.56 µM; in experiment [4] it was 1.85 µM; in [5], 1.34 µM; in experiment [6], 1.14 µM. Moreover, the results for the GI50 in experiment [7], in experiment [8] and in [9] were 1.57 µM, 0.888 µM and 1.24 µM, respectively. In addition, the TGI was 2.27 µM in [10]; 3.18 µM in experiment [2]; 2.92 µM in experiment [3]; 3.56 µM in [4]; 2.65 µM in experiment [5]; 2.37 µM in [6]. For the same molecule, the figures for the TGI in [7], in experiment [8] and in experiment [9] were 2.91 µM, 2.11 µM and 2.49 µM, respectively.
Take `Cc1ccc(C2[C@H]3C(=O)N(c4ccc(Cc5ccc(N6C(=O)[C@@H]7ON(c8ccccc8)C(c8ccc(C)cc8)[C@@H]7C6=O)cc5)cc4)C(=O)[C@H]3ON2c2ccccc2)cc1` (stereo not given in full): the TGI in [10], in experiment [2], in experiment [3], in [4], in experiment [6] and in [7] was above 100 µM throughout. Moreover, the TGI in experiment [8] and in experiment [9] was above 100 µM each time.
As to `COc1cc([C@@H]2OC(=O)C3C2C(=O)O[C@H]3c2ccc(O)c(OC)c2)ccc1O` (stereo not given in full), the TGI in [10], in experiment [2], in [3], in experiment [4], in experiment [5] and in experiment [6] was above 100 µM throughout. For the same molecule, the TGI in experiment [7], in [8] and in [9] was above 100 µM throughout.
Turning to `CCCCCCCCC(C)CCCCCCCCC(=O)OCC(COP(=O)([O-])OCC[N+](C)(C)C)OC(=O)CCCCCCCCC(C)CCCCCCCC` (stereo not given), the TGI in [10], in experiment [2], in [3], in [4], in experiment [5] and in experiment [6] was above 100 µM in each case. Besides, the TGI in experiment [7], in [8] and in [9] was above 100 µM throughout.
`COc1ccc2c(CCCc3ccc(Cl)cc3Cl)c3[n+](cc2c1OC)CCc1cc2c(cc1-3)OCO2`: the GI50 in experiment [10] is 5.1 µM; in experiment [1], 0.639 µM; in experiment [4] it was 0.343 µM; in experiment [7], 0.212 µM. Besides, the TGI worked out at 23.7 µM in experiment [10], 1.96 µM in experiment [1], 1.32 µM in experiment [4] and 0.561 µM in [7].
For `O=[N+]([O-])c1ccc(C2SCc3nc4ccccc4n32)cc1` (stereo not given), the TGI was above 100 µM in experiment [10]; 60.2 µM in experiment [2]; above 100 µM in experiment [3]; above 100 µM in [4]; above 100 µM in experiment [5]; above 100 µM in experiment [6]. Also, the TGI in [7] is 39.2 µM; in experiment [8] it was above 100 µM; in [9], above 100 µM.
Consider `O=C(O)/C(Cl)=C(Cl)/C=N/NC(=O)c1cc2ccccc2cc1O`, for which the TGI was above 100 µM in [10]; above 100 µM in experiment [2]; 87.2 µM in [3]; above 100 µM in [4]; above 100 µM in [5]; above 100 µM in experiment [6]. Further, the TGI is 24.6 µM in experiment [7], above 100 µM in experiment [8] and 65.6 µM in experiment [9].
For `Cn1c2c(c3ccccc3c1=O)C(=O)c1ccccc1-2`, the TGI in experiment [10], in [1], in experiment [2], in experiment [3], in experiment [5] and in [6] was above 100 µM throughout. The TGI in experiment [7], in experiment [8] and in experiment [9] was above 100 µM in each case.
With `CCCS(=O)c1nc(COC(=O)NC)c(COC(=O)NC)n1C` (stereo not given), the TGI in experiment [10], in [2], in experiment [3], in experiment [4], in experiment [5] and in experiment [6] was above 100 µM each time. The TGI in [7], in experiment [8] and in [9] was above 100 µM throughout.
Consider `CC(=O)CCc1ccc(Oc2c3c(nc4ccccc24)OCC3)cc1`, for which the GI50 in experiment [1] is above 100 µM; in [2], above 100 µM; in [3] it was 12.3 µM; in experiment [4], 29.4 µM; in [5], 3.76 µM; in [6] it was 27.5 µM. Further, the GI50 in [7] was 16.6 µM; in experiment [8], 41.7 µM; in experiment [9], 3.12 µM. The TGI was above 100 µM in [1]; above 100 µM in [2]; 78.8 µM in [3]; above 100 µM in experiment [4]; above 100 µM in experiment [5]; above 100 µM in experiment [6]. The TGI in experiment [7] was 55.1 µM; in [8] it was above 100 µM; in [9], 30.2 µM.
`CC(=O)[CH-]C(=O)c1ccccc1.CC(=O)[CH-]C(=O)c1ccccc1.CC[C@H](/C=C/C(C)[C@H]1CCC2[C@@H]3CC=C4C[C@@H]([O-])CC[C@]4(C)C3CC[C@@]21C)C(C)C.CC[C@H](/C=C/C(C)[C@H]1CCC2[C@@H]3CC=C4C[C@@H]([O-])CC[C@]4(C)C3CC[C@@]21C)C(C)C.Cl.[Ti+4]` (stereo not given in full): the GI50 in experiment [10], in [2], in [3], in experiment [4], in experiment [5] and in experiment [6] was above 25 µM throughout. In addition, the GI50 in experiment [7], in experiment [8] and in experiment [9] was above 25 µM in each case. In addition, the TGI in [10], in experiment [2], in experiment [3], in [4], in experiment [5] and in [6] was above 25 µM throughout. For the same molecule, the TGI in experiment [7], in experiment [8] and in experiment [9] was above 25 µM each time.
Consider `CCOC(=O)C1=C(O)C(=O)c2ccoc2C1=O`, for which the TGI in experiment [10], in experiment [2], in experiment [3], in experiment [4], in [5] and in [6] was above 100 µM throughout. Also, the TGI in experiment [7], in experiment [8] and in experiment [9] was above 100 µM each time.
Take `COc1ccc(/C=C\c2cc(OC)c(OC)c(OC)c2)cc1OC(=O)CC(N)C(=O)O` (stereo not given): the TGI in experiment [1] is 0.0187 µM; in [2], above 100 µM; in [3], 0.107 µM; in experiment [6] it was 0.365 µM; in [8], 0.00855 µM and 0.0702 µM; in experiment [9], above 100 µM. The GI50 is 0.00355 µM in experiment [2]; 0.00048 µM in [4]; 0.00195 µM in experiment [5]; 0.000945 µM in experiment [6]; 0.000453 µM and 0.00141 µM in [7]; 0.000352 µM in experiment [8]. Besides, in experiment [9], the GI50 was 11.9 µM.
On to `CCn1cc(C(=O)N/N=C/c2cccs2)c(=O)c2cc(F)c(N3CCNC(C)C3)c(F)c21` (stereo not given), for which the GI50 in [10] was 1.66 µM; in [1], 1.67 µM; in experiment [4] it was 1.75 µM; in experiment [6] it was 1.73 µM; in experiment [7], 1.78 µM; in experiment [8] it was 1.67 µM. Besides, the GI50 in experiment [9] is 1.8 µM. For the same molecule, the TGI in [10] is 3.03 µM; in experiment [1], 3.03 µM; in experiment [4] it was 3.24 µM; in [6], 3.44 µM; in experiment [7], 3.19 µM; in [8], 3.06 µM. In experiment [9], this molecule returned a TGI of 3.43 µM.
As for `CN(C)C(=S)/N=c1\ssc(=S)n1Cc1ccco1`, the TGI was above 100 µM in [10]; above 100 µM in experiment [2]; above 100 µM in experiment [3]; above 64.8 µM in experiment [4]; above 100 µM in [5]; above 100 µM in [6]. Also, the TGI was 38.2 µM in [7], above 47.4 µM in [8] and above 100 µM in experiment [9].
As for `O=C(COC(=O)c1cccc2c(=O)c3ccccc3[nH]c12)Nc1ccc(Cl)cc1`, the TGI in [10], in experiment [2], in [3], in experiment [4], in [5] and in experiment [6] was above 100 µM throughout. Moreover, the TGI in experiment [7], in [8] and in [9] was above 100 µM throughout.
Consider `O=NN1CCN=C1c1ccc([N+](=O)[O-])cc1`, for which the TGI in experiment [10], in experiment [2], in [3], in [4], in experiment [5] and in experiment [6] was above 100 µM in each case. In addition, the TGI in experiment [7], in experiment [8] and in experiment [9] was above 100 µM each time.
Take `CCOC(=O)/C(C#N)=C\Sc1ccccc1`: the TGI was 65.9 µM in [10]; 23.2 µM in [2]; 43 µM in experiment [3]; 83.1 µM in experiment [4]; 27.3 µM in experiment [5]; 28.9 µM in [6]. The values for the TGI in [7], in experiment [8] and in experiment [9] were above 100 µM, 29 µM and above 100 µM, respectively.
`COc1cc2c3c(n([C@@H]4CCOC4)c(=O)c2cc1OC)-c1cc2c(cc1C3=O)OCO2`: the GI50 in experiment [1] is below 0.01 µM; in [2], 0.0537 µM; in [5], 0.0132 µM; in experiment [6], below 0.01 µM. Further, the TGI in experiment [1], in experiment [2], in experiment [5] and in experiment [6] was above 100 µM throughout.
`COc1ccc(NC(=O)c2oc3cc(O)ccc3c(=O)c2C)c([N+](=O)[O-])c1`: the TGI in [10], in [2], in experiment [3], in experiment [4], in experiment [5] and in experiment [6] was above 100 µM throughout. Moreover, the TGI in [7], in [8] and in experiment [9] was above 100 µM each time.
With `O=C1C(Cl)=C(Cl)C(=O)N1c1cccc(C(F)(F)F)c1`, the TGI in experiment [10] is 98 µM; in [2], above 100 µM; in experiment [3] it was above 100 µM; in experiment [4], above 100 µM; in experiment [5] it was above 100 µM; in [6] it was above 100 µM. The TGI in experiment [7], in experiment [8] and in experiment [9] was above 100 µM in each case.

The record behind these values is PubChem BioAssay (NCI).
